Here are results for 40 molecules from ChEMBL document CHEMBL6096731, “Structure-Guided Optimization and Preclinical Evaluation of 6-O-Benzylguanine-Based Pin1 Inhibitor for Hepatocellular Carcinoma Treatment” (J Med Chem, 2025).

The IC50 is the concentration that gives 50% inhibition.

The target in data set [1] is Peptidyl-prolyl cis-trans isomerase NIMA-interacting 1 (Homo sapiens, UniProt Q13526). Nature of the data set: Inhibition of full length pin1 (unknown origin) expressed in Escherichia coli.
Peptidyl-prolyl cis-trans isomerase NIMA-interacting 1, sequence (Q13526 whole entry): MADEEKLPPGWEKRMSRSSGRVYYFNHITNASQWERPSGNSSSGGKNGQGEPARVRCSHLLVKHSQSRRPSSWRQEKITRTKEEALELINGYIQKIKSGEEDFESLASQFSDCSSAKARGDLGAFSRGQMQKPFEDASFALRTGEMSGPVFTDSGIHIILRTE
A short description of data set [2]: Antiproliferative activity against human HCC cells assessed as cell viability incubated for 72 hrs by alamar blue dye based assay. The class given is toxicity. As to conditions: for IC50 at 72 h: HCC cells.
Data set [3] relates to SK-HEP1. Nature of the data set: Inhibition of colony formation human SK-HEP1 cells at 2.5 uM incubated for 5 days by crystal violet staining based analysis. Particulars: time 5.0 day. In kind it is functional, cell-based.
In data set [4] the test system is SK-HEP1. The data set can be described thus: Antiproliferative activity human SK-HEP1 cells assessed as cell viability measured up to 120 hrs. In kind it is functional, cell-based.
Data set [5] has as its system SK-HEP1. The data set can be described thus: Antiproliferative activity human SK-HEP1 cells assessed as cell viability measured at 96 hrs. The class given is functional, cell-based.
Data set [6] has as its system SK-HEP1. Nature of the data set: Antiproliferative activity human SK-HEP1 cells assessed as cell viability measured at 120 hrs. The class given is functional, cell-based.
Data set [7] concerns SK-HEP1. Nature of the data set: Inhibition of cell migration in human SK-HEP1 cells at 5 uM incubated for 24 hrs by crystal violet staining based microscopic analysis. The class given is functional.

Activity calls are given as the source filed them. The calls are words filed in the database; no cut-off is given here. Some results are limits rather than exact numbers.

The molecule `Nc1nc(OCc2ccccc2)c2[nH]cnc2n1` [6-O-BENZYLGUANINE] registered an IC50 in data set [1] of 0.0914 µM. The IC50 at 72 h in data set [2] is 8.5 µM.

Regarding `Nc1nc(OCc2cc(F)ccc2F)c2nc[nH]c2n1`, the IC50 in data set [1] is 0.36 µM. The IC50 at 72 h in data set [2] was 16.6 µM.

`COC(=O)Cn1cnc2c(OCc3cccc(Cl)c3Cl)nc(N)nc21` returned a half-inhibitory concentration (IC50) in data set [1] of 0.829 µM. In data set [2], the IC50 at 72 h is greater than 50 µM.

For the molecule `O=C1C=CC(=O)c2c(O)cccc21`, in data set [3], the inhibition entry was “Active”.

Turning to `Nc1nc(OCc2cccc(Cl)c2Cl)c2nc[nH]c2n1`, the IC50 in data set [1] was greater than 50 µM. Also, in data set [2], the IC50 at 72 h was 13.3 µM.

Molecule `CC(=O)NCc1ccc(COc2nc(N)nc3[nH]cnc23)cc1` had an IC50 in data set [1] of 0.125 µM. In addition, the IC50 at 72 h in data set [2] worked out at 5.3 µM.

The molecule `Cc1ccc(COc2nc(N)nc3nc[nH]c23)cc1` registered an IC50 in data set [1] of 0.293 µM. Further, the half-inhibitory concentration (IC50) at 72 h in data set [2] stood at 6.1 µM.

Regarding `Nc1nc(OCc2cc(F)ccc2Br)c2nc[nH]c2n1`, the midpoint of inhibition in data set [1], the IC50, lay at 1.65 µM. For the same molecule, the IC50 at 72 h in data set [2] is 22.2 µM.

In turn, `Nc1nc(OCc2ccccc2-c2ccccc2)c2nc[nH]c2n1` displayed an IC50 in data set [1] of 8.03 µM. For the same molecule, in data set [2], the 50% inhibitory concentration (IC50) at 72 h was determined as 28.9 µM.

For `COCOc1ccc(COc2nc(N)nc3[nH]cnc23)cc1OC`, the IC50 in data set [1] is 0.519 µM. In addition, the IC50 at 72 h in data set [2] is greater than 50 µM.

As to `Cc1cccc(COc2nc(N)nc3nc[nH]c23)c1`, half-maximal inhibition in data set [1] (IC50) required 0.208 µM. Moreover, the IC50 at 72 h in data set [2] came to 5.5 µM.

`COCOc1cccc(COc2nc(N)nc3[nH]cnc23)c1` returned an IC50 in data set [1] of 0.508 µM. Moreover, in data set [2], the IC50 at 72 h turned out to be 7.6 µM.

In data set [1], `CCOC(=O)Cn1cnc2c(OCc3cccc(OC)c3)nc(N)nc21` gave an IC50 of 21.7 µM. In addition, in data set [2], the IC50 at 72 h is greater than 50 µM.

With `Nc1nc(OCc2ccc(CNC(=O)C(F)(F)F)cc2)c2nc[nH]c2n1`, the outcome in data set [4], in data set [5] and in data set [6] was Active. Also, 0.148 µM corresponded to half-maximal inhibition in data set [1] (IC50). The inhibition result in data set [3] and in data set [7] was “Active” in each case. In addition, in data set [2] (hcc, 72 h), the Activity result was “Non-toxic”.

In data set [1], `Nc1nc(OCc2cc(OCc3ccccc3)cc(OCc3ccccc3)c2)c2nc[nH]c2n1` showed an IC50 of 11.1 µM. Also, the IC50 at 72 h in data set [2] turned out to be 38.5 µM.

`Nc1nc(OCc2cccc(Cl)c2)c2nc[nH]c2n1` displayed an IC50 in data set [1] of 0.179 µM. Also, the IC50 at 72 h in data set [2] is 4 µM.

With `Nc1nc(SCc2ccccc2)c2[nH]cnc2n1`, the IC50 in data set [1] was determined as 2.06 µM. Further, the 50% inhibitory concentration (IC50) at 72 h in data set [2] turned out to be 10.4 µM.

`CSc1ccc(COc2nc(N)nc3[nH]cnc23)cc1` had an IC50 in data set [1] of 0.829 µM. The IC50 at 72 h in data set [2] stood at 6.9 µM.

In turn, `COc1cccc(Oc2nc(N)nc3[nH]cnc23)c1` gave an IC50 in data set [1] of 28.2 µM. For the same molecule, in data set [2], the half-inhibitory concentration (IC50) at 72 h is greater than 50 µM.

On to `COc1cccc(COc2nc(N)nc3[nH]cnc23)c1`, for which, in data set [1], the IC50 was 13.5 µM. Besides, in data set [2], the half-inhibitory concentration (IC50) at 72 h was determined as 6.6 µM.

The molecule `Nc1nc(OCC2CCCCC2)c2nc[nH]c2n1` yielded an IC50 in data set [1] of 5.69 µM. The IC50 at 72 h in data set [2] was 29.6 µM.

In turn, `COc1cccc(COc2nc(N)nc3c2ncn3Cc2ccccc2)c1` displayed an IC50 in data set [1] of 1.46 µM. Also, the 50% inhibitory concentration (IC50) at 72 h in data set [2] is greater than 50 µM.

`COc1cc(COc2nc(N)nc3[nH]cnc23)cc(OC)c1OC` showed an IC50 in data set [1] of 7.85 µM. Further, in data set [2], the IC50 at 72 h is greater than 50 µM.

The molecule `Nc1nc(OCc2cccc(C(F)(F)F)c2)c2nc[nH]c2n1` showed an IC50 in data set [1] of 0.634 µM. Moreover, the IC50 at 72 h in data set [2] stood at 16 µM.

In data set [1], `Nc1nc(OCCCc2ccccc2)c2nc[nH]c2n1` registered a concentration for half-maximal inhibition (IC50) of 3.63 µM. Moreover, the IC50 at 72 h in data set [2] amounted to 35.6 µM.

In turn, `Nc1nc(OCc2cccs2)c2nc[nH]c2n1` returned an IC50 in data set [1] of 7.15 µM. In addition, in data set [2], the IC50 at 72 h was determined as 42.2 µM.

In data set [1], `COc1ccc(COc2nc(N)nc3[nH]cnc23)cc1` showed a half-inhibitory concentration (IC50) of 5.39 µM. In data set [2], the IC50 at 72 h stood at 4.2 µM.

For the molecule `CCOC(=O)Cn1cnc2c(OCc3cccc(Oc4ccccc4)c3)nc(N)nc21`, in data set [1], the IC50 was greater than 50 µM. Further, the IC50 at 72 h in data set [2] is greater than 50 µM.

In data set [1], `CCCCOc1nc(N)nc2[nH]cnc12` displayed a concentration for half-maximal inhibition (IC50) of 18.3 µM. In addition, the IC50 at 72 h in data set [2] was greater than 50 µM.

For the molecule `Nc1nc(OCc2ccc(Br)cc2)c2[nH]cnc2n1`, the half-inhibitory concentration (IC50) in data set [1] came to 0.256 µM. In addition, the IC50 at 72 h in data set [2] came out at 4.8 µM.

As for `COc1cc(COc2nc(N)nc3[nH]cnc23)ccc1OCc1ccccc1`, in data set [1], the IC50 was determined as 11.1 µM. The IC50 at 72 h in data set [2] amounted to 11.2 µM.

`Nc1nc(OCc2cccc(Oc3ccccc3)c2)c2nc[nH]c2n1` showed an IC50 in data set [1] greater than 50 µM. Further, the IC50 at 72 h in data set [2] turned out to be 34.3 µM.

For `Nc1nc(OCc2cccc(Br)c2)c2nc[nH]c2n1`, the IC50 in data set [1] came out at 0.64 µM. Besides, in data set [2], the IC50 at 72 h came to 11.3 µM.

`Cc1ccc(COc2nc(N)nc3[nH]cnc23)cc1C` gave an IC50 in data set [1] of 0.951 µM. Moreover, the IC50 at 72 h in data set [2] was 5.3 µM.

In data set [1], `CCOC(=O)Cn1cnc2c(OCc3cccc(F)c3)nc(N)nc21` returned an IC50 of 8.03 µM. The IC50 at 72 h in data set [2] was greater than 50 µM.

In data set [1], `CCOC(=O)Cn1cnc2c(OCc3cccc(Cl)c3Cl)nc(N)nc21` returned an IC50 greater than 50 µM. Moreover, in data set [2], the IC50 at 72 h is greater than 50 µM.

Regarding `Nc1nc(OCc2ccccc2Cl)c2nc[nH]c2n1`, in data set [1], half-maximal inhibition (IC50) required 0.148 µM. Further, in data set [2], the IC50 at 72 h was determined as 5.6 µM.

`Nc1nc(OCc2cccc(F)c2)c2nc[nH]c2n1`: the IC50 in data set [1] turned out to be 34.5 µM. In addition, in data set [2], the IC50 at 72 h came out at 3.3 µM.

For `Nc1nc(OCc2cccc3ccccc23)c2nc[nH]c2n1`, the IC50 in data set [1] came out at 5.79 µM. The IC50 at 72 h in data set [2] worked out at 33 µM.

As for `CCOC(=O)CCCn1cnc2c(OCc3cccc(OC)c3)nc(N)nc21`, the IC50 in data set [1] was 19.1 µM. Moreover, the IC50 at 72 h in data set [2] is greater than 50 µM.
